Experimental data taken from patent US12247018B2, “Aryl-n-aryl derivatives for treating a RNA virus infection” (ABIVAX, priority 2018, dated 2025).

Columns and labels:
[1] = tested on: CHIKV strain of La Réunion outbreak (LR2006-OPY1) with GFP modification in 5′; assay: microbe, parasite or virus in culture; type: cell-based, Chikungunya virus; conditions: infected HEK293T cells; for inhibition at 1 µM / IC50: Chikungunya virus, HEK-293T; for inhibition at 1 µM: compounds at 1 μM, MOI 0.1, 22 h, values above 100 lowered to 100, read-out: % CHIKV Inhibition Mean (n = 2); for IC50: second round of experiments
Description: The ability of the compounds to inhibit viral replication was assessed with an experiment in which infected cells were treated by compounds of formula (Ic) at 1 μM. As a positive control for inhibition of Chikungunya, Ribavirin was used. Toxicity of the compounds was assessed in parallel.
Human embryonic kidney cells 293T (HEK293T, CRL-11268) were maintained in Dulbecco's modified Eagle's Medium (DMEM, 31966-021, Thermo Fisher Scientific) supplemented with 10% of fetal bovine serum (FBS), penicillin and streptomycin. After removal of the medium, cells were washed with Ca^2+ and Mg^2+-free salt solution to remove all traces of serum. After aspiration of wash solution, cells were dissociated with 0.25% Trypsin-EDTA solution and incubated 30 s at least in 37° C. incubator. Concentration of cell suspension was determined by an automatic cell counter (EVE, NanoEntek) and, if needed, adjusted to 0.33×10^6 cells/mL with DMEM medium supplemented with 10% FBS.
100 μL of the cell suspension were dispatched in a ViewPlate-96 Black (6005182, PerkinElmer) and in a transparent 96-well cell culture plate (655180, Greiner bio-one). After an incubation for 24 h at 37° C. under 5% of CO2, compounds were added at the proper concentration.
An intermediate dilution was prepared with DMSO (D8418, Sigma) at 2 mM in a 96-well V-bottom microplate from the stock solution:
An intermediate dilution was prepared with DMSO (D8418, Sigma) at 25 mM in a 96-well V-bottom microplate from the stock solution:
Perform serial dilution in 2 μL of DMSO 13 times to reach 0.0015 mM. Proceed as follows in table III:
For both screen and determination of IC50, 1 μL of each solution was added in a 1 mL Masterblock 96 wells (Greiner bio-one, 780261) containing 1 mL of DMEM medium. As a positive control, 5 μL of a 80 mM Ribavirin solution (R9644, Sigma) is added to 1 mL of DMEM. On the other hand, DMSO is used as a negative control.
[…]. Vector Borne Zoonotic Dis. 2006; 6 (4)). This modified virus was used to infect cells at MOI 0.1. […].
Medium was removed after 22 h at 37° C. under 5% of CO2 and cells were washed as described above. 60 μL of RIPA buffer (50 mM Tris-HCl pH8, 100 mM NaCl, 1 mM MgCl2, 1% Triton X-100) was added to cells and incubated for at least 20 min before reading fluorescence signal. Pierce 660 nm Protein Assay Reagent (22660, Thermo scientific) was used to normalize fluorescence signal by protein quantity.
• A first round of experiments has been performed wherein the results are expressed as inhibition percentage, which is calculated as follows, through the following steps: • 1. Fluorescence intensity (FI)/Absorbance 660 nm (A660)=A • This ratio allows considering the infection (GFP virus) to the protein amount. • 2. A′=A−background noise of non-infected plate, • 3. B=Fluorescence intensity (FI)/Absorbance 660 nm (A660) of infected but non treated plates, • 4. C=A′/B, which is then converted as the percentage of infection after treatment, compared to non-treated sample, and subsequently as the infection percentage. For instance, a value of 100 in Table IV here below means that, after treatment, the signal attributed to GFP fluorescence is abolished, which is correlated to the absence of infection. • 5. C′=100-C
This value corresponds to the inhibition's percentage.
The following Table IV encompasses said C′ value for some compounds, as calculated above with a mean of 2 experiments, and corresponding standard deviation.
Some values were originally above 100. In these cases, the value has been lowered to 100. This means that some molecules also have an impact on the viability of the cells. In other words, the A value may be lower than the background noise.
Moreover, for each measure, the test was performed with Ribavirin as control. The value of the inhibition percentage was checked, giving 100%.

RSV A2 = assay: RSV inhibition (cytopathic effect) in HEp-2 cells using Viral ToxGlo assay; type: cell-based; conditions: human respiratory syncytial virus; RSV A2, HEp-2 cells, MOI 0.5, 72 h p.i.
Description: Protocol for Screening Antiviral Compounds for RSV Inhibition and Cytotoxicity Using Viral ToxGlo Assay
HEp-2 cells were maintained in Eagle's minimum essential medium (EMEM) with Earle's BSS adjusted to contain 2 mM L-glutamine, 10% fetal bovine serum, 100 U/ml penicillin and 100 μg/ml streptomycin. For the purposes of the screening assay they were grown to 90% confluency, trypsinized and recovered. The trypsin was neutralised with cell culture media and cells were centrifuged at 150×g for 5 minutes before discarding the supernatant and resuspending cell pellet in assay media (EMEM with Earle's BSS adjusted to contain 2 mM L-glutamine, 2% fetal bovine serum and 100 U/ml penicillin and 100 μg/ml streptomycin). The cells were seeded into white clear-bottomed cell culture plates at a density of 1.5×10^4 cells/well in 50 μl and 4×10^3 cells/well in 25 μl for 96 well plates and 384 well plates respectively. For the media/background control column assay media only was added. Cell plates were placed in a humid chamber and incubated overnight at 37° C./5% CO2. After overnight incubation cells were checked for confluency and healthy appearance.
Test articles were made up at 10× test concentration in a maximum DMSO concentration of 10% (final assay concentration maximal 1% DMSO) and added to the cell plates in volumes of 10 μl for 96 well plates and 5 μl for 384 well plates. For cell control and virus control wells the test article solvent only was added. Virus or assay media for cytotoxicity test wells and media/cell control wells was added immediately after test articles at an MOI of 0.5, 40 or 20 μl for 96 and 384 well plates respectively. Virus suspension was prepared by thawing RSV A2 frozen stocks and diluting to the required concentration of plaque forming units in assay media on ice.
Cell plates were further incubated inside a humid chamber for 72 h p.i at 37° C./5% CO2. After the incubation period cells were observed under the microscope to check for characteristic cytopathic effect in virus control wells and healthy cells in the cell control wells. After plates were adjusted to room temperature 20/40 μl Viral ToxGlo (Promega) was added to each well of the 384/96 well cell plates. Plates were incubated at room temperature, protected from light on a plate rocker for 20 minutes before measuring the luminescence on a spectrophotometer (Biotek Synergy HTX).

Structure (SMILES)	inhibition at 1 µM [1] [%]	EC50 (RSV A2) [nM]	further results
Cc1cc(C(=O)N=C2NCCCN2)ccc1Nc1cccc(C(=O)NCCC2CCCC2)c1 [compound 28, 4-((3-((2-cyclopentylethyl)carbamoyl)phenyl)amino)-3-methyl-N-(tetrahydropyrimidin-2(1H)-ylidene)benzamide]	97	308	
NC(=O)c1ncn([C@@H]2O[C@H](CO)[C@@H](O)[C@H]2O)n1 [Ribavirin, reference compound]			inhibition percentage (Ribavirin positive control) ([1]; Ribavirin as control in each measure): 100%
CC(C)CCNC(=O)c1cccc(Nc2ccc(C(=O)N=C3NCCCN3)cc2)c1 [compound 23, N-isopentyl-3-((4-((tetrahydropyrimidin-2(1H)-ylidene)carbamoyl)phenyl)amino)benzamide]	98		IC50 [1]: 100 to 400 nM
O=C(N=C1NCCCN1)c1ccc(Nc2cccc(C(=O)NCCC3CCCC3)c2)cc1 [compound 22, N-(2-cyclopentylethyl)-3-((4-((tetrahydropyrimidin-2(1H)-ylidene)carbamoyl)phenyl)amino)benzamide]	94		IC50 [1]: 100 to 400 nM
Cc1cc(C(=O)N=C2NCCCN2)ccc1Nc1cccc(C(=O)NCCC(C)C)c1 [compound 27, 4-((3-(isopentylcarbamoyl)phenyl)amino)-3-methyl-N-(tetrahydropyrimidin-2(1H)-ylidene)benzamide]	96	365	
O=C(N=C1NCCCN1)c1ccc(Nc2cccc(C(=O)NC3CCOCC3)c2)c(C2CC2)c1 [compound 157, 3-cyclopropyl-N-(1,3-diazinan-2-ylidene)-4-({3-[(oxan-4-yl)carbamoyl]phenyl}amino)benzamide]		1030	
CC(C)CCCNC(=O)c1cccc(Nc2ccc(C(=O)N=C3NCCCN3)cc2C2CC2)c1 [compound 105, 3-cyclopropyl-N-(1,3-diazinan-2-ylidene)-4-({3-[(4-methylpentyl)carbamoyl]phenyl}amino)benzamide]		62	
O=C(N=C1NCCCN1)c1ccc(Nc2cccc(OC(F)F)c2)c(C2CC2)c1 [compound 112, 3-cyclopropyl-N-(1,3-diazinan-2-ylidene)-4-{[3-(difluoromethoxy)phenyl]amino}benzamide]		97	
O=C1CCN/C(=N\C(=O)c2ccc(Nc3cccc(OCC4COCCO4)c3Cl)c(C3CC3)c2)N1 (stereo not shown) [compound 93, 4-({2-chloro-3-[(1,4-dioxan-2-yl)methoxy]phenyl}amino)-3-cyclopropyl-N-[(2E)-4-oxo-1,3-diazinan-2-ylidene]benzamide]		13	
CC(C)C(=O)Nc1cccc(Nc2ccc(C(=O)/N=C3\NCCC(=O)N3)cc2C2CC2)c1C1CC1 [compound 122, 3-cyclopropyl-4-{[2-cyclopropyl-3-(2-methylpropanamido)phenyl]amino}-N-[(2E)-4-oxo-1,3-diazinan-2-ylidene]benzamide]		141	
O=C(N=C1NCCCN1)c1ccc(Nc2cccc(C(=O)NCCC3CCC3)c2)cc1 [compound 26, N-(2-cyclobutylethyl)-3-((4-((tetrahydropyrimidin-2(1H)-ylidene)carbamoyl)phenyl)amino)benzamide]	97		
CC(NC(=O)c1cccc(Nc2ccc(C(=O)N=C3NCCCN3)cc2C2CC2)c1)C(F)(F)F (stereo not shown) [compound 109, 3-cyclopropyl-N-(1,3-diazinan-2-ylidene)-4-({3-[(1,1,1-trifluoropropan-2-yl)carbamoyl]phenyl}amino)benzamide]		79	
O=C(N=C1NCCCN1)c1ccc(Nc2cccc(C(=O)NCCC3CCCCC3)c2)cc1 [compound 24, N-(2-cyclohexylethyl)-3-((4-((tetrahydropyrimidin-2(1H)-ylidene)carbamoyl)phenyl)amino)benzamide]	100		IC50 [1]: 100 to 400 nM
CC(C)NC(=O)c1cccc(Nc2ccc(C(=O)/N=C3\NCCC(=O)N3)cc2C2CC2)c1 [compound 120, 3-cyclopropyl-N-[(2E)-4-oxo-1,3-diazinan-2-ylidene]-4-({3-[(propan-2-yl)carbamoyl]phenyl}amino)benzamide]		136	
O=C(N=C1NCCCN1)c1ccc(Nc2cccc(OCC(F)F)c2)c(C2CC2)c1 [compound 125, 3-cyclopropyl-N-(1,3-diazinan-2-ylidene)-4-{[3-(2,2-difluoroethoxy)phenyl]amino}benzamide]		151	
CC(C)(C)NC(=O)c1cccc(Nc2ccc(C(=O)N=C3NCCCN3)cc2C2CC2)c1 [compound 123, 4-{[3-(tert-butylcarbamoyl)phenyl]amino}-3-cyclopropyl-N-(1,3-diazinan-2-ylidene)benzamide]		147	
O=C1CCN/C(=N\C(=O)c2ccc(Nc3cccc(OCCC4COCCO4)c3)c(C3CC3)c2)N1 (stereo not shown) [compound 150, 3-cyclopropyl-4-({3-[2-(1,4-dioxan-2-yl)ethoxy]phenyl}amino)-N-[(2E)-4-oxo-1,3-diazinan-2-ylidene]benzamide]		512	
Cc1c(N)cccc1Nc1ccc(C(=O)N=C2NCCCN2)cc1C1CC1 [compound 135, 4-[(3-amino-2-methylphenyl)amino]-3-cyclopropyl-N-(1,3-diazinan-2-ylidene)benzamide]		286	
O=C(N=C1NCCCN1)c1ccc(Nc2cccc(C(=O)N3CCOCC3)c2)c(C2CC2)c1 [compound 158, 3-cyclopropyl-N-(1,3-diazinan-2-ylidene)-4-{[3-(morpholine-4-carbonyl)phenyl]amino}benzamide]		1030	
O=C(N=C1NCCCN1)c1ccc(Nc2ccnc(C(=O)NCCC3CCCCC3)c2)c(C2CC2)c1 [compound 138, N-(2-cyclohexylethyl)-4-({2-cyclopropyl-4-[(1,3-diazinan-2-ylidene)carbamoyl]phenyl}amino)pyridine-2-carboxamide]		310	
